In brackets after ≈: the same amount, converted by molar mass.
test system: PGE2 production by LPS-stimulated RAW 264.7 macrophages; test: Inhibition of PGE2 production by LPS-stimulated macrophages (ELISA); format: cell-based, murine; conditions: Mus musculus, RAW264.7, 24 h, read-out: IC50 PGE2
Protocol: (§1) Murine RAW 264.7 macrophage cell line (American Type Culture Collection, Manassas, VA, USA), was cultured in Dulbecco’s modified Eagle’s medium (DMEM-F12) supplemented with 10% Fetal Bovine Serum (FBS) and gentamicin (50 µg/mL) in 5% CO2 atmosphere at 37 °C. For experiments, the cells were seeded in 96-well plates (1 × 10^5 cells/well) and incubated for 24 h at 37 °C. For macrophage stimulation, the cell cultures were treated with LPS (1 µg/mL) and incubated for additional 24 h in the presence or absence of the chalcone samples (samples 1–41) that were used at concentrations of 100, 20, 4 and 0.8 µg/mL. In some experiments, a nitric oxide (NO) inhibitor, L-NMMA (20 μg/mL), was used as a positive control of NO inhibition, and a non-steroidal anti-inflammatory drug indomethacin, known to inhibit production of prostaglandins, was used as a positive control of PGE2 inhibition.
(§2) The frozen culture supernatants samples were thawed and immediately analyzed using commercially available enzyme-linked immunosorbent assay (ELISA) kits to measure TNF-α, IL-1β (BD Biosciences) and PGE2 (R&D Systems, Minneapolis, MN, USA), according to the manufacturer’s instructions. Standard curves for each mediator were generated using reference cytokine concentrations supplied by the manufacturer. Nitric oxide (NO) generation was assessed by the Griess method to measure nitrites, which are stable breakdown NO products.

First: O=C(/C=C/c1ccccc1Cl)c1ccc(Br)cc1 [Chalcone 15]
Second: COc1ccc(C(=O)/C=C/c2ccccc2)cc1 [Chalcone 24]
The IC50 of the first is 2.7-fold lower: 32.8 ± 3.7 µM for the first, 90 ± 3.4 µM for the second.

test system: not listed separately; test: Macrophage cytotoxicity, LDH release assay; format: cell-based, murine; conditions: mouse, RAW 264.7 macrophages stimulated with LPS; LPS-stimulated RAW 264.7, LDH release; mean ± SD, n = 3
Protocol: Cytotoxic effects of chalcone samples on RAW 264.7 cell viability in cultures stimulated with LPS were determined using the LDH (lactate dehydrogenase) release assay as previously described [58]. Cytoplasmic enzyme LDH release into cell culture supernatants was detected using a commercial LDH kit (Doles, GO, Brazil). Cell death was expressed as percentage of LDH release, which was calculated using the following formula: percentage of LDH release = 100 × (test LDH release − spontaneous release)/(maximum release − spontaneous release). The maximum release was determined following dissolution of cell monolayers using 1% (vol/vol) Triton X-100. The spontaneous release was determined in supernatants from cultures incubated in the presence of LPS and DMSO, used as a solvent for chalcone samples.

`O=C(/C=C/c1ccccc1Cl)c1ccc(Br)cc1` [Chalcone 15] and `COc1ccc(C(=O)/C=C/c2ccccc2)cc1` [Chalcone 24] are within 1.5-fold of each other in IC50: 256 ± 3.8 µM for the first, 245 ± 4.5 µM for the second.

test system: M. tuberculosis strain H37Rv in RAW 264.7 macrophages; test: Intracellular growth of M. tuberculosis H37Rv in infected macrophages (CFU); format: cell-based, Mycobacterium tuberculosis; conditions: Mycobacterium tuberculosis, H37RV, 96 h, infected RAW 264.7, MOI 1:1, 4 days, Figure 3C
Protocol: (§3) RAW 264.7 macrophages were plated (1 × 10^5 cells/well) in antibiotic-free DMEM-F12 medium supplemented with 10% fetal bovine serum and incubated for 24 h. Prior to infection, mycobacterial suspensions were sonicated for 1 minute to disperse clumps and optical densities were adjusted to 0.1. The macrophage cultures were infected at a MOI of 1:1 (macrophage: bacterium). Phagocytosis was allowed to progress for 3 h. After 3 h, extracellular mycobacteria were removed by washing with PBS 1X and the infected cell monolayers were treated for 4 days with chalcone samples or rifampicin. Macrophage viability was monitored by LDH assay and was over 80% in all experiments. On day 4 after infection, cells were lysed cells with 1% saponin to release intracellular bacteria. Lysate aliquots were diluted 10-fold in PBS, plated in triplicates on 7H10 agar plates and incubated at 37 °C. After 21 days, total CFU were determined.

First: O=C(/C=C/c1ccccc1Cl)c1ccc(Br)cc1 [Chalcone 15]
Second: COc1ccc(C(=O)/C=C/c2ccccc2)cc1 [Chalcone 24]
The MIC50 of the first is 5.7-fold higher: 242 ± 4.4 µM (≈ 77.9 µg/mL) for the first, 42.6 ± 3.1 µM (≈ 10.2 µg/mL) for the second.

test system: RAW 264.7 macrophages infected with M. tuberculosis H37Rv; test: Toxicity for infected macrophages, LDH assay; format: cell-based, murine; conditions: Mus musculus, RAW264.7, 96 h; infected RAW 264.7, 4 days treatment; Figure 3D
Protocol: Cytotoxic effects of chalcone samples on RAW 264.7 cell viability in cultures stimulated with LPS were determined using the LDH (lactate dehydrogenase) release assay as previously described. Cytoplasmic enzyme LDH release into cell culture supernatants was detected using a commercial LDH kit (Doles, GO, Brazil). Cell death was expressed as percentage of LDH release, which was calculated using the following formula: percentage of LDH release = 100 × (test LDH release − spontaneous release)/(maximum release − spontaneous release). The maximum release was determined following dissolution of cell monolayers using 1% (vol/vol) Triton X-100. The spontaneous release was determined in supernatants from cultures incubated in the presence of LPS and DMSO, used as a solvent for chalcone samples.
as §3

`O=C(/C=C/c1ccccc1Cl)c1ccc(Br)cc1` [Chalcone 15] and `COc1ccc(C(=O)/C=C/c2ccccc2)cc1` [Chalcone 24] are within 1.5-fold of each other in IC50: 214 ± 2.5 µM for the first, 319 ± 4.6 µM for the second.

test system: TNF-α production by LPS-stimulated RAW 264.7 macrophages; test: Inhibition of TNF-α production by LPS-stimulated macrophages (ELISA); format: cell-based, murine; conditions: LPS-stimulated RAW 264.7

For `COc1ccc(C(=O)/C=C/c2ccccc2)cc1` [Chalcone 24], the “inhibition of TNF-α” value was “strongly inhibit”.

same assay, conditions: Mus musculus, RAW264.7, 24 h, read-out: IC50 TNF-α

With `O=C(/C=C/c1ccccc1Cl)c1ccc(Br)cc1` [Chalcone 15] the IC50 was > 311 µM.

same assay, conditions: Mus musculus, RAW264.7; LPS (1 µg/mL)-stimulated RAW 264.7, 24 h; mean ± SD, n = 3; read-out: IC50 TNF-α

Work on `COc1ccc(C(=O)/C=C/c2ccccc2)cc1` [Chalcone 24] yielded an IC50 of 78.8 ± 6.5 µM.

test system: M. tuberculosis M299; test: microbe, parasite or virus in culture; format: cell-based, Mycobacterium tuberculosis; conditions: not given

With `O=C(/C=C/c1ccccc1Cl)c1ccc(Br)cc1` [Chalcone 15] the “activity against M299 compared with H37Rv” value was “significantly less potent”.
With `COc1ccc(C(=O)/C=C/c2ccccc2)cc1` [Chalcone 24] the “activity against M299 compared with H37Rv” value was “significantly less potent”.

same assay, conditions: Mycobacterium tuberculosis, M299, 120 h

`O=C(/C=C/c1ccccc1Cl)c1ccc(Br)cc1` [Chalcone 15] and `COc1ccc(C(=O)/C=C/c2ccccc2)cc1` [Chalcone 24] cannot be ordered by MIC50: > 311 µM for the first, > 420 µM for the second.

`O=C(/C=C/c1ccccc1Cl)c1ccc(Br)cc1` [Chalcone 15] and `COc1ccc(C(=O)/C=C/c2ccccc2)cc1` [Chalcone 24] cannot be ordered by MIC90: > 311 µM for the first, > 420 µM for the second.

test system: M. bovis BCG; test: microbe, parasite or virus in culture; format: cell-based, Mycobacterium bovis BCG; conditions: Mycobacterium tuberculosis variant bovis BCG, BCG, 168 h, read-out: MIC50 M. bovis BCG

Compared with `O=C(/C=C/c1ccccc1Cl)c1ccc(Br)cc1` [Chalcone 15], `COc1ccc(C(=O)/C=C/c2ccccc2)cc1` [Chalcone 24] is 2.3-fold higher in MIC50: 13.8 ± 4.4 µM (≈ 4.44 µg/mL) for the first, 31.5 ± 5.9 µM (≈ 7.51 µg/mL) for the second.

same assay, conditions: Mycobacterium tuberculosis variant bovis BCG, BCG, 168 h, read-out: MIC90 M. bovis BCG

Compared with `O=C(/C=C/c1ccccc1Cl)c1ccc(Br)cc1` [Chalcone 15], `COc1ccc(C(=O)/C=C/c2ccccc2)cc1` [Chalcone 24] is 1.5-fold higher in MIC90: 265 ± 4.5 µM (≈ 85.3 µg/mL) for the first, 399 ± 6.9 µM (≈ 95.1 µg/mL) for the second.

test system: IL-1β production by LPS-stimulated RAW 264.7 macrophages; test: Inhibition of IL-1β production by LPS-stimulated macrophages (ELISA); format: cell-based, murine; conditions: LPS-stimulated RAW 264.7
Protocol: as §1, §2

With `COc1ccc(C(=O)/C=C/c2ccccc2)cc1` [Chalcone 24] the “inhibition of IL-1β” value was “potent inhibitors”.

same assay, conditions: Mus musculus, RAW264.7, 24 h, read-out: IC50 IL-1β

First: O=C(/C=C/c1ccccc1Cl)c1ccc(Br)cc1 [Chalcone 15]
Second: COc1ccc(C(=O)/C=C/c2ccccc2)cc1 [Chalcone 24]
The IC50 of the first is higher: > 311 µM for the first, 56.6 ± 3.5 µM for the second.

test system: NO production by LPS-stimulated RAW 264.7 macrophages; test: Inhibition of NO production by LPS-stimulated macrophages (Griess); format: cell-based, murine; conditions: LPS (1 µg/mL)-stimulated RAW 264.7, 24 h; mean ± SD, n = 3; read-out: IC50 NO

`COc1ccc(C(=O)/C=C/c2ccccc2)cc1` [Chalcone 24] gave an IC50 of 21.3 ± 4.5 µM.

same assay, conditions: Mus musculus, RAW264.7, 24 h, read-out: IC50 NO, LPS (1 µg/mL)-stimulated RAW 264.7, 24 h; mean ± SD, n = 3

First: O=C(/C=C/c1ccccc1Cl)c1ccc(Br)cc1 [Chalcone 15]
Second: COc1ccc(C(=O)/C=C/c2ccccc2)cc1 [Chalcone 24]
The IC50 of the first is higher: 36.7 µM for the first, < 21 µM for the second.

test system: M. tuberculosis H37Rv; test: microbe, parasite or virus in culture; format: cell-based, Mycobacterium tuberculosis; conditions: Mycobacterium tuberculosis, H37RV, 120 h

`O=C(/C=C/c1ccccc1Cl)c1ccc(Br)cc1` [Chalcone 15] and `COc1ccc(C(=O)/C=C/c2ccccc2)cc1` [Chalcone 24] are within 1.5-fold of each other in MIC90: 288 ± 5.5 µM (≈ 92.6 µg/mL) for the first, 375 ± 6.8 µM (≈ 89.3 µg/mL) for the second.

same assay, conditions: Mycobacterium tuberculosis, H37RV, 120 h; read-out: MIC50 M. tuberculosis H37Rv

`O=C(/C=C/c1ccccc1Cl)c1ccc(Br)cc1` [Chalcone 15] and `COc1ccc(C(=O)/C=C/c2ccccc2)cc1` [Chalcone 24] are within error of each other in MIC50: 17.1 ± 3.8 µM (≈ 5.5 µg/mL) for the first, 25.3 ± 5.2 µM (≈ 6.03 µg/mL) for the second.

same assay, conditions: Mycobacterium tuberculosis; Table 5; same values as M. tuberculosis H37Rv in Table 3; read-out: MIC50

`O=C(/C=C/c1ccccc1Cl)c1ccc(Br)cc1` [Chalcone 15] and `COc1ccc(C(=O)/C=C/c2ccccc2)cc1` [Chalcone 24] are within error of each other in MIC50: 17.1 ± 3.8 µM (≈ 5.5 µg/mL) for the first, 25.3 ± 5.2 µM (≈ 6.03 µg/mL) for the second.

From publication PMC6272185 (Molecules, 2015)
